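Each compound was tested at five concentrations against cells in 96-well plates for 48 hours. The concentration for full growth arrest is given as TGI.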
How the values were obtained:
Assay in all cases: NCI tumour cell line growth inhibition, 48 h
[1] = system: SK-MEL-28 melanoma
[2] = system: EKVX NSCLC
[3] = system: SF-295 CNS
[4] = system: K-562 leukemia
[5] = system: NCI-H226 lung
[6] = system: NCI-H522 lung
[7] = system: MALME-3M melanoma
[8] = system: T-47D breast
[9] = system: U251 CNS
[10] = system: SK-MEL-5 melanoma
[11] = system: SK-MEL-2 melanoma
[12] = system: PC-3 prostate
[13] = system: OVCAR-4 ovarian
[14] = system: COLO 205 colon
[15] = system: 786-0 renal
[16] = system: SNB-75 CNS
[17] = system: HOP-62 NSCLC
[18] = system: HT29 colon
[19] = system: SF-539 CNS
[20] = system: MDA-MB-231 breast
[21] = system: OVCAR-8 ovarian
[22] = system: HOP-92 NSCLC
[23] = system: CAKI-1 renal
[24] = system: OVCAR-3 ovarian
[25] = system: SR leukemia
[26] = system: HCT-116 colon
[27] = system: MDA-MB-435
[28] = system: MOLT-4 leukemia
[29] = system: HCC-2998 colon
[30] = system: CCRF-CEM leukemia
[31] = system: OVCAR-5 ovarian
[32] = system: A549 NSCLC
[33] = system: HCT-15 colon
[34] = system: NCI/ADR-RES ovarian
[35] = system: RPMI-8226 leukemia
[36] = system: M14 melanoma
[37] = system: NCI-H460 lung
[38] = system: SN12C renal
[39] = system: ACHN renal
[40] = system: IGROV1 ovarian
[41] = system: SNB-19 CNS
[42] = system: KM12 colon
[43] = system: HL-60(TB) leukemia
[44] = system: NCI-H23 lung
[45] = system: SW-620 colon
[46] = system: UO-31 renal
[47] = system: RXF 393 renal
[48] = system: TK-10 renal
[49] = system: BT-549 breast
[50] = system: UACC-62 melanoma
[51] = system: MCF7 breast
[52] = system: UACC-257 melanoma
[53] = system: SK-OV-3 ovarian
[54] = system: HS 578T breast
[55] = system: DU-145 prostate
[56] = system: SF-268 CNS
[57] = system: A498 renal
[58] = system: LOX IMVI melanoma

Which TGI [1] does the source give for `O=C1C(Cl)=C(Sc2nnc3c4ccccc4c4ccccc4c3n2)C(=O)c2ccccc21` here?
Its TGI is 39.6 µM.

What about the TGI [2] of the same compound?
Its TGI is 37.7 µM.

And the TGI [3]?
The TGI was 23.3 µM.

What about the TGI [4] of the same compound?
Its TGI is over 59.3 µM.

What about the TGI [5] of the same compound?
Its TGI is 40.9 µM.

What about the TGI [6] of the same compound?
The TGI was 57.7 µM.

What about the TGI [7] of the same compound?
The TGI was 11.6 µM.

And the TGI [8]?
Its TGI is 19.2 µM.

And the TGI [9]?
Its TGI is 28.4 µM.

What about the TGI [10] of the same compound?
The TGI was 22.4 µM.

And the TGI [11]?
The TGI was 34.8 µM.

What about the TGI [12] of the same compound?
The TGI was 46.4 µM.

And the TGI [13]?
Its TGI is 29.2 µM.

And the TGI [14]?
The TGI was 38.9 µM.

And the TGI [15]?
The TGI was 33.9 µM.

And the TGI [16]?
The TGI was 8.77 µM.

What about the TGI [17] of the same compound?
Its TGI is 32 µM.

What about the TGI [18] of the same compound?
The TGI was 62 µM.

What about the TGI [19] of the same compound?
The TGI was 32.4 µM.

What about the TGI [20] of the same compound?
The TGI was 17 µM.

What about the TGI [21] of the same compound?
Its TGI is 29.6 µM.

What about the TGI [22] of the same compound?
The TGI was 33.2 µM.

And the TGI [23]?
Its TGI is 31.9 µM.

What about the TGI [24] of the same compound?
Its TGI is 27.2 µM.

What about the TGI [25] of the same compound?
The TGI was over 56 µM.

And the TGI [26]?
Its TGI is 33.3 µM.

And the TGI [27]?
Its TGI is 3.41 µM.

What about the TGI [28] of the same compound?
Its TGI is 34.4 µM.

What about the TGI [29] of the same compound?
Its TGI is 94.2 µM.

And the TGI [30]?
Its TGI is 14.5 µM.

And the TGI [31]?
The TGI was 45.3 µM.

What about the TGI [32] of the same compound?
The TGI was 71.4 µM.

What about the TGI [33] of the same compound?
Its TGI is 42.8 µM.

And the TGI [34]?
The TGI was over 86.3 µM.

What about the TGI [35] of the same compound?
The TGI was 39.1 µM.

And the TGI [36]?
The TGI was 35 µM.

What about the TGI [37] of the same compound?
The TGI was 37 µM.

What about the TGI [38] of the same compound?
Its TGI is 33.1 µM.

What about the TGI [39] of the same compound?
Its TGI is 29.5 µM.

What about the TGI [40] of the same compound?
The TGI was 21.2 µM.

And the TGI [41]?
Its TGI is 36.6 µM.

And the TGI [42]?
Its TGI is 30.7 µM.

What about the TGI [43] of the same compound?
Its TGI is 7.59 µM.

What about the TGI [44] of the same compound?
The TGI was 19.4 µM.

What about the TGI [45] of the same compound?
The TGI was over 65.1 µM.

And the TGI [46]?
The TGI was 28.4 µM.

What about the TGI [47] of the same compound?
The TGI was 32 µM.

And the TGI [48]?
Its TGI is 37.4 µM.

And the TGI [49]?
Its TGI is 32.2 µM.

And the TGI [50]?
The TGI was 29.8 µM.

And the TGI [51]?
The TGI was 28.2 µM.

And the TGI [52]?
The TGI was 30 µM.

What about the TGI [53] of the same compound?
Its TGI is 55.3 µM.

And the TGI [54]?
Its TGI is over 100 µM.

And the TGI [55]?
Its TGI is 22 µM.

What about the TGI [56] of the same compound?
Its TGI is 90.6 µM.

And the TGI [57]?
The TGI was 37.2 µM.

What about the TGI [58] of the same compound?
Its TGI is 17.2 µM.

What does the source list for `Cc1ccc2c(=O)cc(Cc3cccs3)[nH]c2n1`?
TGI [1]: > 100 µM; TGI [2]: > 100 µM; TGI [3]: > 100 µM; TGI [4]: > 100 µM; TGI [5]: > 100 µM; TGI [6]: > 100 µM; TGI [7]: > 100 µM; TGI [8]: > 100 µM; TGI [9]: > 100 µM; TGI [10]: > 100 µM; TGI [11]: > 100 µM; TGI [12]: > 100 µM; TGI [13]: > 100 µM; TGI [14]: > 100 µM; TGI [15]: > 100 µM; TGI [16]: > 100 µM; TGI [17]: > 100 µM; TGI [18]: > 100 µM; TGI [20]: > 100 µM; TGI [21]: > 100 µM; TGI [23]: > 100 µM; TGI [24]: > 100 µM; TGI [26]: > 100 µM; TGI [27]: > 100 µM; TGI [28]: > 100 µM; TGI [30]: > 100 µM; TGI [31]: > 100 µM; TGI [32]: > 100 µM; TGI [33]: > 100 µM; TGI [34]: > 100 µM; TGI [35]: > 100 µM; TGI [36]: > 100 µM; TGI [38]: > 100 µM; TGI [40]: > 100 µM; TGI [41]: > 100 µM; TGI [42]: > 100 µM; TGI [43]: > 100 µM; TGI [44]: > 100 µM; TGI [45]: > 100 µM; TGI [46]: > 100 µM; TGI [47]: > 100 µM; TGI [48]: > 100 µM; TGI [49]: > 100 µM; TGI [50]: > 100 µM; TGI [51]: > 100 µM; TGI [52]: > 100 µM; TGI [53]: > 100 µM; TGI [54]: > 100 µM; TGI [55]: > 100 µM; TGI [56]: > 100 µM; TGI [58]: > 100 µM

Reference: PubChem BioAssay (NCI)
